From PubChem BioAssay (NCI)
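Protocol summary: plate cells (96-well), add compound at 5 concentrations, incubate 48 h, interpolate endpoints linearly. GI50 = concentration required for 50% inhibition of growth. TGI: concentration producing complete growth inhibition.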

Tests used:
Experiment in all cases: DTP human tumour cell line panel, 48 h
786-0 renal = test system: 786-0 renal
A498 renal = test system: A498 renal
A549 NSCLC = test system: A549 NSCLC
ACHN renal = test system: ACHN renal
BT-549 breast = test system: BT-549 breast
CAKI-1 renal = test system: CAKI-1 renal
CCRF-CEM leukemia = test system: CCRF-CEM leukemia
COLO 205 colon = test system: COLO 205 colon
DU-145 prostate = test system: DU-145 prostate
EKVX NSCLC = test system: EKVX NSCLC
HCC-2998 colon = test system: HCC-2998 colon
HCT-116 colon = test system: HCT-116 colon
HCT-15 colon = test system: HCT-15 colon
HL-60(TB) leukemia = test system: HL-60(TB) leukemia
HOP-62 NSCLC = test system: HOP-62 NSCLC
HOP-92 NSCLC = test system: HOP-92 NSCLC
HS 578T breast = test system: HS 578T breast
HT29 colon = test system: HT29 colon
IGROV1 ovarian = test system: IGROV1 ovarian
K-562 leukemia = test system: K-562 leukemia
KM12 colon = test system: KM12 colon
LOX IMVI melanoma = test system: LOX IMVI melanoma
M14 melanoma = test system: M14 melanoma
MALME-3M melanoma = test system: MALME-3M melanoma
MCF7 breast = test system: MCF7 breast
MDA-MB-231 breast = test system: MDA-MB-231 breast
MDA-MB-435 = test system: MDA-MB-435
MOLT-4 leukemia = test system: MOLT-4 leukemia
NCI-H226 lung = test system: NCI-H226 lung
NCI-H23 lung = test system: NCI-H23 lung
NCI-H460 lung = test system: NCI-H460 lung
NCI-H522 lung = test system: NCI-H522 lung
NCI/ADR-RES ovarian = test system: NCI/ADR-RES ovarian
OVCAR-3 ovarian = test system: OVCAR-3 ovarian
OVCAR-4 ovarian = test system: OVCAR-4 ovarian
OVCAR-5 ovarian = test system: OVCAR-5 ovarian
OVCAR-8 ovarian = test system: OVCAR-8 ovarian
PC-3 prostate = test system: PC-3 prostate
RPMI-8226 leukemia = test system: RPMI-8226 leukemia
RXF 393 renal = test system: RXF 393 renal
SF-268 CNS = test system: SF-268 CNS
SF-295 CNS = test system: SF-295 CNS
SK-MEL-2 melanoma = test system: SK-MEL-2 melanoma
SK-MEL-28 melanoma = test system: SK-MEL-28 melanoma
SK-MEL-5 melanoma = test system: SK-MEL-5 melanoma
SK-OV-3 ovarian = test system: SK-OV-3 ovarian
SN12C renal = test system: SN12C renal
SNB-19 CNS = test system: SNB-19 CNS
SNB-75 CNS = test system: SNB-75 CNS
SR leukemia = test system: SR leukemia
SW-620 colon = test system: SW-620 colon
T-47D breast = test system: T-47D breast
TK-10 renal = test system: TK-10 renal
U251 CNS = test system: U251 CNS
UACC-257 melanoma = test system: UACC-257 melanoma
UACC-62 melanoma = test system: UACC-62 melanoma
UO-31 renal = test system: UO-31 renal

Compound `C=CCn1c2ccccc2c2c3c(c4c5ccccc5n(CC=C)c4c21)C(=O)N(O)C3=O` has a GI50 (786-0 renal) of 2.66 µM, a TGI (786-0 renal) of 40.4 µM and a GI50 (A498 renal) of 2.55 µM. The TGI (A498 renal) was 9.48 µM, the GI50 (A549 NSCLC) was 4.47 µM and the TGI (A549 NSCLC) was 55.4 µM. The GI50 (ACHN renal) was 1.6 µM, the TGI (ACHN renal) was 3.89 µM and the GI50 (BT-549 breast) was 3.27 µM. For the same compound, the TGI (BT-549 breast) was 27.9 µM, the GI50 (CAKI-1 renal) was 1.69 µM and the TGI (CAKI-1 renal) was 3.45 µM. For the same compound, the GI50 (CCRF-CEM leukemia) was 0.971 µM, the TGI (CCRF-CEM leukemia) was 7.1 µM and the GI50 (COLO 205 colon) was 2.01 µM. For the same compound, the TGI (COLO 205 colon) was 9.31 µM, the GI50 (DU-145 prostate) was 3.65 µM and the TGI (DU-145 prostate) was greater than 100 µM. The GI50 (EKVX NSCLC) was 6.34 µM, the TGI (EKVX NSCLC) was 30.6 µM and the GI50 (HCC-2998 colon) was 4.94 µM. For the same compound, the TGI (HCC-2998 colon) was 34 µM, the GI50 (HCT-116 colon) was 2.29 µM and the TGI (HCT-116 colon) was 12.5 µM. The GI50 (HCT-15 colon) was 3.18 µM, the TGI (HCT-15 colon) was 17 µM and the GI50 (HL-60(TB) leukemia) was 2.09 µM. For the same compound, the TGI (HL-60(TB) leukemia) was 4.31 µM, the GI50 (HOP-62 NSCLC) was 2.49 µM and the TGI (HOP-62 NSCLC) was 12.7 µM. For the same compound, the GI50 (HOP-92 NSCLC) was 7.13 µM, the TGI (HOP-92 NSCLC) was 25.5 µM and the GI50 (HS 578T breast) was 19.6 µM. For the same compound, the TGI (HS 578T breast) was greater than 100 µM, the GI50 (HT29 colon) was 2.02 µM and the TGI (HT29 colon) was 4.9 µM. The GI50 (IGROV1 ovarian) was 1.4 µM, the TGI (IGROV1 ovarian) was 3.8 µM and the GI50 (K-562 leukemia) was 3.89 µM. For the same compound, the TGI (K-562 leukemia) was 50 µM, the GI50 (KM12 colon) was 3.2 µM and the TGI (KM12 colon) was 18.4 µM. For the same compound, the GI50 (LOX IMVI melanoma) was 0.967 µM, the TGI (LOX IMVI melanoma) was 2.43 µM and the GI50 (M14 melanoma) was 2.31 µM. For the same compound, the TGI (M14 melanoma) was 26.2 µM, the GI50 (MALME-3M melanoma) was 6.91 µM and the TGI (MALME-3M melanoma) was 26.7 µM. It also gave a GI50 (MCF7 breast) of 0.674 µM, a TGI (MCF7 breast) of 29.9 µM and a GI50 (MDA-MB-231 breast) of 4.12 µM. It also gave a TGI (MDA-MB-231 breast) of 21.4 µM, a GI50 (MDA-MB-435) of 4.45 µM and a TGI (MDA-MB-435) of 29.6 µM. It also gave a GI50 (MOLT-4 leukemia) of 1.02 µM, a TGI (MOLT-4 leukemia) of 5.12 µM and a GI50 (NCI-H226 lung) of 6.36 µM. It also gave a TGI (NCI-H226 lung) of 42.2 µM, a GI50 (NCI-H23 lung) of 3.03 µM and a TGI (NCI-H23 lung) of 22.2 µM. The GI50 (NCI-H460 lung) was 2.78 µM, the TGI (NCI-H460 lung) was 10.7 µM and the GI50 (NCI-H522 lung) was 1.09 µM. For the same compound, the TGI (NCI-H522 lung) was 2.56 µM, the GI50 (NCI/ADR-RES ovarian) was 3.43 µM and the TGI (NCI/ADR-RES ovarian) was 21.9 µM. It also gave a GI50 (OVCAR-3 ovarian) of 2.32 µM, a TGI (OVCAR-3 ovarian) of 8.07 µM and a GI50 (OVCAR-4 ovarian) of 5.38 µM. For the same compound, the TGI (OVCAR-4 ovarian) was 44.8 µM, the GI50 (OVCAR-5 ovarian) was 5.29 µM and the TGI (OVCAR-5 ovarian) was 29.6 µM. For the same compound, the GI50 (OVCAR-8 ovarian) was 4.41 µM, the TGI (OVCAR-8 ovarian) was 28.3 µM and the GI50 (PC-3 prostate) was 2.69 µM. The TGI (PC-3 prostate) was 25.3 µM, the GI50 (RPMI-8226 leukemia) was 2.51 µM and the TGI (RPMI-8226 leukemia) was 10.6 µM. For the same compound, the GI50 (RXF 393 renal) was 3.94 µM, the TGI (RXF 393 renal) was 19.6 µM and the GI50 (SF-268 CNS) was 3.72 µM. The TGI (SF-268 CNS) was 32.4 µM, the GI50 (SF-295 CNS) was 2.62 µM and the TGI (SF-295 CNS) was 8.62 µM. The GI50 (SK-MEL-2 melanoma) was 13 µM, the TGI (SK-MEL-2 melanoma) was 46.1 µM and the GI50 (SK-MEL-28 melanoma) was 5.47 µM. It also gave a TGI (SK-MEL-28 melanoma) greater than 100 µM, a GI50 (SK-MEL-5 melanoma) of 1.79 µM and a TGI (SK-MEL-5 melanoma) of 4.1 µM. For the same compound, the GI50 (SK-OV-3 ovarian) was 3.22 µM, the TGI (SK-OV-3 ovarian) was greater than 100 µM and the GI50 (SN12C renal) was 3.36 µM. For the same compound, the TGI (SN12C renal) was 13.2 µM, the GI50 (SNB-19 CNS) was 4.18 µM and the TGI (SNB-19 CNS) was greater than 100 µM. It also gave a GI50 (SNB-75 CNS) of 3.55 µM, a TGI (SNB-75 CNS) of 24.2 µM and a GI50 (SR leukemia) of 0.363 µM. For the same compound, the TGI (SR leukemia) was 5.67 µM, the GI50 (SW-620 colon) was 4.42 µM and the TGI (SW-620 colon) was 29.5 µM. The GI50 (T-47D breast) was 2.03 µM, the TGI (T-47D breast) was 33.2 µM and the GI50 (TK-10 renal) was 6.16 µM. It also gave a TGI (TK-10 renal) of 35.7 µM, a GI50 (U251 CNS) of 2.79 µM and a TGI (U251 CNS) of 11.4 µM. For the same compound, the GI50 (UACC-257 melanoma) was 13.5 µM, the TGI (UACC-257 melanoma) was 54.6 µM and the GI50 (UACC-62 melanoma) was 1.74 µM. For the same compound, the TGI (UACC-62 melanoma) was 10.5 µM, the GI50 (UO-31 renal) was 1.75 µM and the TGI (UO-31 renal) was 5 µM.
